# In patent publication US10870646B2, “Oxazolidinones and pharmaceutical compositions thereof for treating bacterial infections, including infection of Mycobacterium tuberculosis” (University of St. Thomas, priority 2017, dated 2020):
# Like-named read-outs stand apart in the source and are kept apart here.
# Legend:
# [1] = system: Acinetobacter baumannii ACBA; experiment: MIC90 broth microdilution; format: cell-based
# [2] = system: Acinetobacter baumannii ATCC 19606; experiment: MIC90 broth microdilution; format: cell-based; conditions: ATCC19606
# [3] = system: Mycobacterium abscessus; experiment: MIC90 broth microdilution; format: cell-based; conditions: for MIC90: Mycobacteroides abscessus
# [4] = system: Enterobacter cloacae; experiment: MIC90 broth microdilution; format: cell-based; conditions: for MIC90: Enterobacter cloacae
# [5] = system: Enterococcus faecalis; experiment: MIC90 broth microdilution; format: cell-based; conditions: for MIC90: Enterococcus faecalis
# [6] = system: Klebsiella pneumoniae; experiment: MIC90 broth microdilution; format: cell-based; conditions: for MIC90: Klebsiella pneumoniae
# [7] = system: Staphylococcus aureus; experiment: MIC90 broth microdilution; format: cell-based; conditions: for MIC90: Staphylococcus aureus
# [8] = system: Mycobacterium tuberculosis H37Rv; experiment: MIC90 broth macrodilution; format: cell-based
# [9] = system: Mycobacterium avium; experiment: MIC90 broth microdilution; format: cell-based; conditions: for MIC90: Mycobacterium avium
# [10] = system: Pseudomonas aeruginosa; experiment: MIC90 broth microdilution; format: cell-based; conditions: for MIC90: Pseudomonas aeruginosa
# [11] = system: Acinetobacter baumannii 6M-1b; experiment: MIC90 broth microdilution; format: cell-based
# [12] = system: E. faecalis; experiment: Minimum bactericidal concentration (MBC99.9); format: cell-based, Enterococcus faecalis; conditions: up to 8 times MIC90
# [13] = system: Mtb H37Rv; experiment: Minimum bactericidal concentration (MBC99.9); format: cell-based, Mycobacterium tuberculosis
# [14] = system: Mtb; experiment: Checkerboard titration assay (drug-drug interaction); format: cell-based, Mycobacterium tuberculosis; conditions: combined with isoniazid or rifampicin
# [15] = system: E. faecalis; experiment: as above; format: cell-based, Enterococcus faecalis; conditions: combined with biapenem, faropenem and tebipenem
# [16] = system: S. aureus; experiment: Minimum bactericidal concentration (MBC99.9); format: cell-based, Staphylococcus aureus; conditions: up to 8 times MIC90
# [17] = system: E. faecalis; format: cell-based, Enterococcus faecalis
# [18] = system: S. aureus; format: cell-based, Staphylococcus aureus
# [19] = system: S. aureus; experiment: Checkerboard titration assay (drug-drug interaction); format: cell-based, Staphylococcus aureus; conditions: combined with biapenem, faropenem and tebipenem
# [20] = system: S. aureus; conditions: Zurenko et al. 1996; cited from earlier work
# [21] = system: Mycobacterium tuberculosis; conditions: cited from earlier work; for MIC90: Mycobacterium tuberculosis, strain not stated, Kaushik et al. 2015 cited after the table
# [22] = Acinetobacter baumannii ACBA, patient isolate
# [23] = Acinetobacter baumannii ACBA, patient isolate, read-out: MIC90
# [24] = Acinetobacter baumannii ATCC 19606, read-out: MIC90
# [25] = Mycobacterium abscessus, read-out: MIC90
# [26] = Mycobacterium tuberculosis H37Rv, read-out: MIC90
# [27] = Acinetobacter baumannii 6M-1b, environmental isolate
compound,measurement,setting,value
"COc1cccc2c1Oc1ccc(N3C[C@H](CNC(C)=O)OC3=O)cc1O2 [Compound T197, (S)—N-((3-(6-methoxydibenzo[b,e][1,4]dioxin-2-yl)-2-oxooxazolidin-5-yl)methyl)acetamide]",MIC90,[1]; [22],>64 µg/mL
same,MIC90,[1]; [23],> 64 µg/mL
same,MIC90,[2]; [24],> 64 µg/mL
same,MIC90,[3]; [25],> 64 µg/mL
same,MIC90,[4]; read-out: MIC90,> 64 µg/mL
same,MIC90,[5]; read-out: MIC90,8 to 16 µg/mL
same,MIC90,[6]; read-out: MIC90,> 64 µg/mL
same,MIC90,[7]; read-out: MIC90,16 to 32 µg/mL
same,MIC90,[8]; [26],8 to 16 µg/mL
same,MIC90,[9]; read-out: MIC90,> 64 µg/mL
same,MIC90,[10]; read-out: MIC90,> 64 µg/mL
"C[C@@H](O)[C@H]1C(=O)N2C(C(=O)O)=C(S[C@@H]3CN[C@H](C(=O)N(C)C)C3)[C@H](C)[C@H]12 [Meropenem, reference compound]",MIC90,[1]; [22],>64 µg/mL
same,MIC90,[1]; [23],> 64 µg/mL
same,MIC90,[2]; [24],> 64 µg/mL
same,MIC90,[3]; [25],> 64 µg/mL
same,MIC90,[4]; read-out: MIC90,0.13 to 0.25 µg/mL
same,MIC90,[5]; read-out: MIC90,4 to 8 µg/mL
same,MIC90,[6]; read-out: MIC90,< 0.06 µg/mL
same,MIC90,[7]; read-out: MIC90,0.06 to 0.13 µg/mL
same,MIC90,[8]; [26],4 to 8 µg/mL
same,MIC90,[9]; read-out: MIC90,> 64 µg/mL
same,MIC90,[11]; [27],1 to 2 µg/mL
same,MIC90,[10]; read-out: MIC90,0.25 to 0.5 µg/mL
CC(=O)NC[C@H]1CN(c2ccc3c(c2)Oc2ccccc2O3)C(=O)O1 [Compound T145],bactericidal or bacteriostatic activity,[12],bacteriostatic
same,MIC90,[1],>64 µg/mL
same,MIC90,[1]; Acinetobacter baumannii,> 64 µg/mL
same,MIC90,[2]; Acinetobacter baumannii,32 to 64 µg/mL
same,activity against growth (in words),[3],no activity
same,MIC90,[3],> 64 µg/mL
same,bactericidal or bacteriostatic activity,"[13]; Mtb, 1, 2, 4 and 8 times MIC90",bactericidal activity
same,MBC,"[13]; Mycobacterium tuberculosis, Mtb H37Rv",2 µg/mL
same,activity against growth (in words),[4],no activity
same,MIC90,[4],> 64 µg/mL
same,"drug-drug interaction (synergy, indifference, antagonism)",[14],indifferent
same,"drug-drug interaction (synergy, indifference, antagonism)",[15],indifferent
same,activity against growth (in words),[5],potent activity
same,MIC90,[5],0.25 to 0.5 µg/mL
same,activity against growth (in words),[6],no activity
same,MIC90,[6],> 64 µg/mL
same,activity against growth (in words),[7],potent activity
same,MIC90,[7],0.5 to 1 µg/mL
same,MIC90,"[8]; Mycobacterium tuberculosis, H37RV",0.5 to 1 µg/mL
same,activity against growth (in words),[9],no activity
same,MIC90,[9],> 64 µg/mL
same,MIC90,[11],0.25 to 0.50 µg/mL
same,MIC90,"[11]; Acinetobacter baumannii, 6M1B",0.25 to 4 µg/mL
same,bactericidal or bacteriostatic activity,[16],bacteriostatic
same,selection of spontaneous resistant mutants,[17],failed to produce distinct colonies
same,activity against growth (in words),[10],no activity
same,MIC90,[10],> 64 µg/mL
same,selection of spontaneous resistant mutants,[18],failed to produce distinct colonies
same,"drug-drug interaction (synergy, indifference, antagonism)",[19],indifferent
"CC(=O)NC[C@H]1CN(c2ccc(N3CCOCC3)c(F)c2)C(=O)O1 [Linezolid, reference compound]",MIC90,[1]; [22],>64 µg/mL
same,MIC90,[1]; [23],> 64 µg/mL
same,MIC90,[2]; [24],> 64 µg/mL
same,bactericidal or bacteriostatic activity,[20],bacteriostatic activity
same,MIC90,[4]; read-out: MIC90,> 64 µg/mL
same,MIC90,[5]; read-out: MIC90,1 to 2 µg/mL
same,MIC90,[6]; read-out: MIC90,16 to 32 µg/mL
same,MIC90,[7]; read-out: MIC90,1 to 2 µg/mL
same,MIC90,[8]; [26],0.2 to 2 µg/mL
same,MIC90,[11]; [27],0.25 to 0.50 µg/mL
same,MIC90,"[11]; Acinetobacter baumannii, 6M1B, Acinetobacter baumannii 6M-1b, environmental isolate, read-out: MIC90",0.25 to 4 µg/mL
same,MIC90 of linezolid,"[21]; Mtb, Rodriguez et al. 2002",0.5 to 2.0 µg/mL
same,MIC90,[10]; read-out: MIC90,> 64 µg/mL
C[C@@H](O)[C@H]1C(=O)N2C(C(=O)O)=C([C@H]3CCCO3)S[C@H]12 [Faropenem],MIC90,[5]; read-out: MIC90,0.25 to 0.5 µg/mL
same,MIC90,[7]; read-out: MIC90,0.015 to 0.03 µg/mL
same,MIC90,[21],2.5 to 5.0 µg/mL
C[C@@H](O)[C@H]1C(=O)N2C(C(=O)[O-])=C(SC3Cn4cnc[n+]4C3)[C@H](C)[C@H]12 (some centres unmarked) [Biapenem],MIC90,[5]; read-out: MIC90,0.25 to 0.5 µg/mL
same,MIC90,[7]; read-out: MIC90,0.007 to 0.015 µg/mL
same,MIC90,[21],2.5 to 5.0 µg/mL
C[C@@H](O)[C@H]1C(=O)N2C(C(=O)O)=C(SC3CN(C4=NCCS4)C3)[C@H](C)[C@H]12 [Tebipenem],MIC90,[5]; read-out: MIC90,0.25 to 0.5 µg/mL
same,MIC90,[7]; read-out: MIC90,0.03 to 0.06 µg/mL
same,MIC90,[21],1.25 to 2.5 µg/mL
